Read-outs that look alike come from different tables or passages of the source.
Experiments:
Format in all cases: in vivo
[1] = tested on: Alopecurus myosuroides (ALOMY); assay: Pre-emergence herbicidal action against ALOMY; conditions: 320 g/ha; scored visually after about 3 weeks; 100% = plants have died
Outline: (§1)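 Seeds sown in pots and covered with soil; WP or EC formulations sprayed onto the soil surface at 600 l/ha water with 0.5% additive, at 320 g/ha or lower. Greenhouse growth for about 3 weeks, then visual scoring as % effect against untreated controls (100% = plants dead).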

[2] = tested on: Amaranthus retroflexus (AMARE); assay: Pre-emergence herbicidal action against AMARE; conditions: visual scoring after about 3 weeks vs untreated controls
Outline: as §1

[3] = tested on: Digitaria sanguinalis (DIGSA); assay: Pre-emergence herbicidal action against DIGSA
Excerpt: Seeds of monocotyledonous and dicotyledonous weed plants and crop plants are placed in plastic or organic planting pots and covered with soil. The compounds of the invention, formulated in the form of wettable powders (WP) or as emulsion concentrates (EC), are then applied to the surface of the covering soil as aqueous suspension or emulsion with addition of 0.5% additive at a water application rate equivalent to 600 l/ha. After the treatment, the pots are placed in a greenhouse and kept under good growth conditions for the trial plants. After about 3 weeks, the effect of the preparations is scored visually in comparison with untreated controls as percentages. For example, 100% activity=the plants have died, 0% activity=like control plants.
Tables A1 to A13 below show the effects of selected compounds of the general formula (I) on various harmful plants and at an application rate corresponding to 320 g/ha or lower, which were obtained by the experimental procedure mentioned above. The appendices “a”, “b” and “c” give differentiation by dosage used with otherwise the same harmful plants tested.

[4] = tested on: Echinochloa crus-galli (ECHCG); assay: Pre-emergence herbicidal action against ECHCG
Outline: as §1

Lolium rigidum (LOLRI) = assay: Pre-emergence herbicidal action against LOLRI; conditions: dosage 320 g/ha
Outline: as §1

[5] = tested on: Matricaria inodora (MATIN); assay: Pre-emergence herbicidal action against MATIN
Outline: as §1

[6] = tested on: Pharbitis purpurea (PHBPU); assay: Pre-emergence herbicidal action against PHBPU
Outline: as §1

[7] = tested on: Polygonum convolvulus (POLCO); assay: Pre-emergence herbicidal action against POLCO
Outline: as §1

Setaria viridis (SETVI) [8] = assay: Pre-emergence herbicidal action against SETVI
Outline: as §1

[9] = tested on: Verconica persica (VERPE); assay: Pre-emergence herbicidal action against VERPE
Outline: as §1

Viola tricolor (VIOTR) [10] = assay: Pre-emergence herbicidal action against VIOTR
Outline: as §1

[11] = tested on: Abutilon theophrasti (ABUTH); assay: Post-emergence herbicidal action against ABUTH; conditions: 320 g/ha, visual rating about 3 weeks after treatment vs untreated controls (100% = plants have died, 0% = like control plants)
Outline: (§2)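 Values are percent visual activity (0% like control, 100% plants dead) after about 3 weeks in the greenhouse. Treatment: post-emergence spray at one-leaf stage, 600 l/ha spray volume, 0.5% additive, doses 320 g/ha or lower.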

Avena fatua (AVEFA) [12] = assay: Post-emergence herbicidal action against AVEFA; conditions: 320 g/ha, visual rating about 3 weeks after treatment
Outline: as §2

[13] = tested on: Digitaria sanguinalis (DIGSA); assay: Post-emergence herbicidal action against DIGSA; conditions: visual rating about 3 weeks after treatment
Outline: as §2

[14] = tested on: Echinochloa crus-galli (ECHCG); assay: Post-emergence herbicidal action against ECHCG
Outline: as §2

[15] = tested on: Matricaria inodora (MATIN); assay: Post-emergence herbicidal action against MATIN
Outline: as §2

[16] = tested on: Pharbitis purpurea (PHBPU); assay: Post-emergence herbicidal action against PHBPU
Outline: as §2

Setaria viridis (SETVI) [17] = assay: Post-emergence herbicidal action against SETVI; conditions: dosage 320 g/ha
Outline: as §2

Viola tricolor (VIOTR) [18] = assay: Post-emergence herbicidal action against VIOTR
Outline: as §2

Oryza sativa (ORYSA) = conditions: crop plant compatibility, effect in comparison to untreated controls
Outline: (§3)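 Foliar application at the one-leaf stage: WP/EC formulation, 0.5% additive, 600 l/ha water. Greenhouse-grown in sandy loam. Endpoint is visual % injury relative to untreated controls at about 3 weeks.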

Zea mays (ZEAMX) [19] = conditions: pre-emergence, 80 g/ha, crop plant compatibility, in comparison to untreated controls
Outline: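 Crop injury rated visually in percent against untreated plants roughly 3 weeks after treatment (0% no effect, 100% plants dead). Compounds, as WP or EC with 0.5% additive in 600 l/ha water, were applied to the covering soil right after sowing; greenhouse growth. Suffixes a, b, c denote different dosages.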

[20] = tested on: Amaranthus retroflexus (AMARE); assay: Post-emergence herbicidal action against AMARE
Outline: as §2

[21] = tested on: Polygonum convolvulus (POLCO); assay: Post-emergence herbicidal action against POLCO; conditions: dosage 320 g/ha
Outline: as §2

[22] = tested on: Verconica persica (VERPE); assay: Post-emergence herbicidal action against VERPE; conditions: 320 g/ha, VERPE
Outline: as §2

Zea mays (ZEAMX) [23] = conditions: crop plant compatibility, 80 g/ha, effect vs untreated controls
Outline: as §3

Avena fatua (AVEFA) [24] = assay: Pre-emergence herbicidal action against AVEFA; conditions: 320 g/ha, visual scoring after about 3 weeks vs untreated controls
Outline: as §1

[25] = 80 g/ha, visual scoring after about 3 weeks vs untreated controls

Row | SMILES | Pre-emergence action against ALOMY [1] [%] | Pre-emergence action against AMARE in % ([2]; 80 g/ha) [%] | Pre-emergence action against AMARE in % ([2]; 320 g/ha) [%] | Pre-emergence action against DIGSA in % [3, 25] [%] | Pre-emergence action against DIGSA in % ([3]; dosage 320 g/ha) [%] | Pre-emergence action against ECHCG in % ([4]; dosage 80 g/ha) [%] | Pre-emergence action against ECHCG in % ([4]; dosage 320 g/ha) [%] | Pre-emergence action against LOLRI in % (Lolium rigidum (LOLRI)) [%] | Pre-emergence action against MATIN in % ([5]; dosage 80 g/ha) [%] | Pre-emergence action against MATIN in % ([5]; dosage 320 g/ha) [%] | Pre-emergence action against PHBPU in % ([6]; dosage 80 g/ha) [%] | Pre-emergence action against PHBPU in % ([6]; dosage 320 g/ha) [%] | Pre-emergence action against SETVI in % (Setaria viridis (SETVI) [8]; dosage 80 g/ha) [%] | Pre-emergence action against SETVI in % (Setaria viridis (SETVI) [8]; dosage 320 g/ha) [%] | Pre-emergence action against VERPE in % ([9]; dosage 320 g/ha) [%] | Pre-emergence action against VIOTR in % (Viola tricolor (VIOTR) [10]; 320 g/ha, Viola tricolor) [%] | Pre-emergence action against VIOTR in % (Viola tricolor (VIOTR) [10]; dosage 80 g/ha) [%] | Post-emergence action against PHBPU in % ([16]; dosage 320 g/ha) [%] | Post-emergence action against VIOTR in % (Viola tricolor (VIOTR) [18]; 320 g/ha) [%] | Post-emergence action against ORYSA in % (Oryza sativa (ORYSA); 80 g/ha) [%] | further results
1 | COC(=O)COc1nn(-c2nc(F)ccc2F)c(-c2cncc(F)c2)c1Cl [Example I-216] | 90 | 90 | 90 | 90 | 100 | 80 | 100 | 80 | 90 | 90 | 90 | 90 | 80 | 100 | 90 | 100 | 100 | 80 | 80 | 10 | Pre-emergence action against POLCO in % ([7]; dosage 80 g/ha): 90%; Pre-emergence action against POLCO in % ([7]; dosage 320 g/ha): 90%; Post-emergence action against ABUTH in % [11]: 80%; Post-emergence action against AVEFA in % (Avena fatua (AVEFA) [12]): 80%; Post-emergence action against DIGSA in % ([13]; 80 g/ha): 80%; Post-emergence action against DIGSA in % ([13]; 320 g/ha): 80%; Post-emergence action against ECHCG in % ([14]; dosage 80 g/ha): 80%; Post-emergence action against ECHCG in % ([14]; dosage 320 g/ha): 80%; Post-emergence action against MATIN in % ([15]; dosage 80 g/ha): 80%; Post-emergence action against MATIN in % ([15]; dosage 320 g/ha): 80%; Post-emergence action against PHBPU in % ([16]; dosage 80 g/ha): 80%; Post-emergence action against SETVI in % (Setaria viridis (SETVI) [17]): 80%; Post-emergence action against VIOTR in % (Viola tricolor (VIOTR) [18]; 80 g/ha): 80%
2 | O=C(O)COc1nn(-c2ccccn2)c(-c2ccc(Cl)nc2)c1Br [Example I-235] |  | 80 | 90 |  | 90 |  |  |  |  |  |  |  |  |  | 80 |  |  | 80 | 80 | 0 | Pre-emergence action against ZEAMX in % (Zea mays (ZEAMX) [19]): 0%; Post-emergence action against AMARE in % ([20]; 80 g/ha, visual rating about 3 weeks after treatment vs untreated controls (100% = plants have died, 0% = like control plants)): 80%; Post-emergence action against AMARE in % ([20]; 320 g/ha, visual rating about 3 weeks after treatment): 80%; Post-emergence action against PHBPU in % ([16]; dosage 80 g/ha): 80%; Post-emergence action against POLCO in % [21]: 80%; Post-emergence action against VERPE in % [22]: 80%; Post-emergence action against VIOTR in % (Viola tricolor (VIOTR) [18]; 80 g/ha): 80%; Post-emergence action against ORYSA in % (Oryza sativa (ORYSA); 320 g/ha): 0%; Post-emergence action against ZEAMX in % (Zea mays (ZEAMX) [23]): 20%
3 | O=C(O)COc1nn(-c2nc(F)ccc2F)c(-c2cncc(F)c2)c1Cl [Example I-231] | 90 |  | 90 | 90 | 100 | 90 | 90 | 80 | 90 | 90 | 90 | 90 | 90 | 90 | 80 | 100 | 100 | 80 | 80 | 10 | Pre-emergence action against AVEFA in % (Avena fatua (AVEFA) [24]): 90%; Pre-emergence action against VERPE in % ([9]; dosage 80 g/ha): 80%; Post-emergence action against DIGSA in % ([13]; 320 g/ha): 90%; Post-emergence action against ECHCG in % ([14]; dosage 80 g/ha): 80%; Post-emergence action against ECHCG in % ([14]; dosage 320 g/ha): 90%; Post-emergence action against MATIN in % ([15]; dosage 80 g/ha): 80%; Post-emergence action against MATIN in % ([15]; dosage 320 g/ha): 80%; Post-emergence action against SETVI in % (Setaria viridis (SETVI) [17]): 80%; Post-emergence action against VERPE in % [22]: 80%

— patent publication US20240041042A1, “1-(PYRIDYL)-5-AZINYLPYRAZOLE DERIVATIVES, AND THEIR USE FOR CONTROL OF UNDESIRED PLANT GROWTH” (Bayer Aktiengesellschaft, priority 2020, published 2024)
